The target of test [1] is Beta-2 adrenergic receptor (Homo sapiens, UniProt P07550). The experiment in a line: ADRB2 activation measured by internalization – cell-based, FAP fluorogen, flow cytometry, cherry pick 1, dose response (AID 588763). Type of test: functional. (In general: In flow cytometry, cells or beads pass a laser one at a time.)
A short description of test [2]: microbe, parasite or virus in culture. Type of test: functional. The note with it: Mycobacterium tuberculosis.
Test [3] addresses FAD-linked sulfhydryl oxidase ALR (Homo sapiens, UniProt P55789). The experiment in a line: ALR-catalysed DTT oxidation blockers – biochemical, H2O2 detection, luminescence, cherry-pick, dose response (AID 493248).
Test [4] has as its target 26S proteasome non-ATPase regulatory subunit 14 (Homo sapiens, UniProt O00487). Kind of test: inhibition of proteasome subunit RPN11 – biochemical, fluorescence polarization, uHTS hits, confirmation (AID 602368). Type of test: functional. On the technique in general: Polarisation of emitted light reports the rotation of a fluorescent probe.
In test [5] the target is 72 kDa type IV collagenase (Homo sapiens, UniProt P08253). The experiment in a line: Dose Response validation of uHTS RPN11 inhibitor hits using a MMP-2 Fluorescence assay. It counts as functional.
A further test deals with Prothrombin (Bos taurus, UniProt P00735). The experiment in a line: thrombin protease inhibitors – biochemical, fluorescence polarization, uHTS hits, dose response (AID 602369). It counts as functional.
The next test has as its target Cytochrome P450 3A4 (Homo sapiens, UniProt P08684). The note with it: Potency.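 Further: confirmatory qHTS run detecting inhibitors and substrates of CYP3A4.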
For test [6], the target named is Voltage-gated inwardly rectifying potassium channel KCNH2 (Homo sapiens, UniProt Q12809). The settings on record: Potency.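 Further: confirmatory quantitative high-throughput screen measuring inhibition of hERG channel activity.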
Test [7] can be described thus: luciferase reporter signal suppression in cells – H4 neuroglioma cells, luminescence, dose response (AID 1990). Type of test: functional, cell-based. Background: Reporter assays use an easily measured gene product as a stand-in for the process of interest.
Test [8] is described as follows: Luminescence Cell-Based Dose Response HTS to Identify Inhibitors of 5'UTR Stem-Loop Driven Prion Protein mRNA Translation in H4 Neuroglioblastoma Cells. [Related pubchem assays: 1827 (Project Summary), 1813 (Primary HTS)]. It counts as functional.
The nature of test [9]: alpha-synuclein stem-loop luciferase translation blockers – H4 neuroglioma cells, luminescence, confirmation (AID 1988). Type of test: functional, cell-based.
The target in test [10] is T1, E3 ubiquitin-protein ligase XIAP (Homo sapiens, UniProt P98170). Kind of test: Counter Screen using XIAP-Bir3 for Chemical Antagonists of Bir1/2 domains of IAP-family anti-apoptotic proteins. [Related pubchem assays (depositor defined):AID1018, AID1449, AID1514, AID1638, AID1749, AID1750, AID488957, AID488963].
Test [11] deals with T1, E3 ubiquitin-protein ligase XIAP. The experiment in a line: small molecules displacing peptide from XIAP – biochemical, IAP family, fluorescence polarization (AID 1018). It counts as functional.
In test [12] the target is T2, Microphthalmia-associated transcription factor (Homo sapiens, UniProt O75030).
T2 sequence (O75030 whole entry): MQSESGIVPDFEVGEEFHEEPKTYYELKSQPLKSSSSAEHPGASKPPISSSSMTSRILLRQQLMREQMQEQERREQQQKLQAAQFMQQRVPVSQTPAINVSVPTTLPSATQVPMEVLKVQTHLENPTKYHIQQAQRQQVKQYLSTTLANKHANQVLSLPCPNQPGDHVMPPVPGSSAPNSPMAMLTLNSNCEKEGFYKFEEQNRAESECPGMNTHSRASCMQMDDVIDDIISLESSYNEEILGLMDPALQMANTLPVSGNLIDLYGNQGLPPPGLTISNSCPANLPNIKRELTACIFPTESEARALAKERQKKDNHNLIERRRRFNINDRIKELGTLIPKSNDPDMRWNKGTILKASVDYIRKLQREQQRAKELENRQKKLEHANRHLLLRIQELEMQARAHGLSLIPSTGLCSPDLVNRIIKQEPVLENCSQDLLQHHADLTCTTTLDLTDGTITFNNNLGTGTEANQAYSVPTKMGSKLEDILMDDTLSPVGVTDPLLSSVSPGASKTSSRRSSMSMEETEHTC
The experiment in a line: reducers of TRPM1 reporter luminescence, concentration series – cell-based, SK-MEL-5, cherry-picked, set 3, MITF inhibitor project, dose response (AID 493073).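 Further: SK-MEL-5 melanoma cells with luciferase driven by the MITF target TRPM1 promoter.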 Type of test: functional.

Test [13] in a line: HEK-293T cell viability reduction – luminescence, B-cell screen hits, cytotoxicity control for BCR NF-kB inhibitor project, dose response (AID 489021).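 Further: HEK-293T cells carrying an NF-kB luciferase reporter; cells exposed to compound for about 14 hours before viability readout.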 Type of test: functional, cell-based.
In a further test the test system is HEK293. Kind of test: HEK293T cell viability loss, resazurin readout – resazurin fluorescence, cytotoxicity control for NF-kB activator project, SAR follow-up (AID 493251). It counts as functional, cell-based. The settings on record: Homo sapiens.
In test [14] the target is Carboxy-terminal domain RNA polymerase II polypeptide A small phosphatase 1 (Homo sapiens, UniProt Q9GZU7). The experiment in a line: CTDSP1 inhibitors, concentration-response, biochemical, absorbance readout, ultra-high-throughput screen actives (AID 540297). It counts as functional.
Test [15] concerns the target T3, Short transient receptor potential channel 4 (Mus musculus, UniProt Q9QUQ5).
T3 sequence (Q9QUQ5 whole entry): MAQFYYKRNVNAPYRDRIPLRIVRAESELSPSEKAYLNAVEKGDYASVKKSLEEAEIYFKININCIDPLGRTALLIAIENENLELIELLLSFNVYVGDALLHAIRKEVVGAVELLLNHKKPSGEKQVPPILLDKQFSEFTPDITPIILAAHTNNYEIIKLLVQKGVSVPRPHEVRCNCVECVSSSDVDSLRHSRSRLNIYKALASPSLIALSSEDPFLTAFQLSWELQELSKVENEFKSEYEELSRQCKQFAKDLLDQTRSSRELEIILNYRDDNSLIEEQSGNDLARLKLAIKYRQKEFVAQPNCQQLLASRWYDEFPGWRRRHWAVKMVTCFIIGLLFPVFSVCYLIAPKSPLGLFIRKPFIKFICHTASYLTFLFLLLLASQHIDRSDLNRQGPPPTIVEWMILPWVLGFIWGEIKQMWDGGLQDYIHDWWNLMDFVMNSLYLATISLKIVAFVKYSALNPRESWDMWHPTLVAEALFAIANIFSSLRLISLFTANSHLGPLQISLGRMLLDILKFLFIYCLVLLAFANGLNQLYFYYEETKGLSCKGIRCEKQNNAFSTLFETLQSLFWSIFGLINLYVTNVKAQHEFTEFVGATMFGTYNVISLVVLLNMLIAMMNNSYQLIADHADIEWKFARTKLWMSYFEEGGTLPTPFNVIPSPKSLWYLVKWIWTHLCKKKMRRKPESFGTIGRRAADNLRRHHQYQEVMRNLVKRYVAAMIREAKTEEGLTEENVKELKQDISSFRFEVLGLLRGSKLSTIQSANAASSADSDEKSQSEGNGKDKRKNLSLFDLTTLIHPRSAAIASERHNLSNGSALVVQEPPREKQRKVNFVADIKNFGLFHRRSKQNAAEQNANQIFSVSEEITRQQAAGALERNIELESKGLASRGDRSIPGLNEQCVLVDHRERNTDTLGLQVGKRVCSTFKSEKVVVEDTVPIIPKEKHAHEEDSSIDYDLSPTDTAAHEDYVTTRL
The experiment in a line: calcium entry via TRPC4 opening agents – cell-based, HEK293 TRPC4/mu-opioid, Fluo-4 calcium, dose response (AID 434937). Type of test: functional.

Test [16] concerns the target Delta-type opioid receptor (Homo sapiens, UniProt P41143). Kind of test: Counterscreen for agonists of heterodimerization of the mu 1 (OPRM1) and delta 1 (OPRD1) opioid receptors: Luminescence-based cell-based high throughput dose response assay to identify agonists of OPRD1 homodimerization. [Related pubchem assays (depositor defined):AID504326, AID504355, AID504692, AID504904, AID504905]. Type of test: functional.

For a further test, the target named is Mu-type opioid receptor (Homo sapiens, UniProt P35372). Kind of test: Counterscreen for agonists of heterodimerization of the mu 1 (OPRM1) and delta 1 (OPRD1) opioid receptors: Luminescence-based cell-based high throughput dose response assay to identify agonists of OPRM1 homodimerization. Type of test: functional.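 Further: U2OS cells expressing OPRM1 and beta-arrestin as split beta-galactosidase partners.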
Test [17] deals with 5-hydroxytryptamine receptor 5A (Homo sapiens, UniProt P47898). The experiment in a line: Counterscreen for agonists of OPRM1-OPRD1 heterodimerization: luminescence-based cell-based high throughput dose response assay to identify agonists of 5-hydroxytryptamine (serotonin) 5A receptor (HTR5A). [Related pubchem assays (depositor defined):AID504326, AID504355, AID504692, AID504904, AID504905]. It counts as functional.

Another test concerns the target Troponin, cardiac muscle (Homo sapiens, UniProt P19429+P45379+P63316). Kind of test: Fluorescence-based biochemical high throughput dose response assay for activators of the calcium sensitivity of cardiac Regulated Thin Filaments (RTF). [Related pubchem assays (depositor defined):AID493008, AID493018, AID504382, AID504383]. It counts as protein-complex assay.
The target of the next test is Cysteine protease ATG4B (Homo sapiens, UniProt Q9Y4P1). It counts as functional.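 Further: Fluorescence-based dose-response confirmation assay measuring inhibition of ATG4B activity.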
Another test has as its target Phospholipase A2 (Homo sapiens, UniProt P04054). It counts as functional.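 Further: confirmatory dose-response counterscreen on phospholipase A2, testing hits that came from an ultra-high-throughput screen for ATG4B inhibitors.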
For another test, the system named is CHO. The experiment in a line: CHO cell viability loss, potency – luminescence, cytotoxicity control for TLR9-MyD88 binding inhibitor project, dose response (AID 588339).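 Further: CHO cells stably coexpressing TLR9 and MyD88 fusions from primary screen; compound exposure lasted 48 hours before viability readout.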 Type of test: functional, cell-based, hamster. The settings on record: Cricetulus griseus.
Test [18] addresses Heat shock protein HSP 90-alpha (Homo sapiens, UniProt P07900). Type of test: functional, organism-based.
A further test addresses Beta Lactamase (Pseudomonas aeruginosa, UniProt Q932Y6). The experiment in a line: BLA reporter interference, concentration series – BLA reporter cells, FRET fluorescence, artefact control for TLR9-MyD88 binding inhibitor project, dose response (AID 588341).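 Further: cell based assay in CHO-K1 cells stably expressing beta-lactamase.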 It counts as cell-based.
Test [19] has as its target Photoreceptor-specific nuclear receptor (Homo sapiens, UniProt Q9Y5X4). Type of test: functional, cell-based.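 Further: CHO-S cells with Gal4-NCOR and VP16-NR2E3 two-hybrid luciferase reporter.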

The record followed here is ChEMBL document CHEMBL1201862, “PubChem BioAssay data set” (2004).

Structures are written as SMILES. Activity calls are given as the source filed them.

Cysteine protease ATG4B, sequence (Q9Y4P1 whole entry): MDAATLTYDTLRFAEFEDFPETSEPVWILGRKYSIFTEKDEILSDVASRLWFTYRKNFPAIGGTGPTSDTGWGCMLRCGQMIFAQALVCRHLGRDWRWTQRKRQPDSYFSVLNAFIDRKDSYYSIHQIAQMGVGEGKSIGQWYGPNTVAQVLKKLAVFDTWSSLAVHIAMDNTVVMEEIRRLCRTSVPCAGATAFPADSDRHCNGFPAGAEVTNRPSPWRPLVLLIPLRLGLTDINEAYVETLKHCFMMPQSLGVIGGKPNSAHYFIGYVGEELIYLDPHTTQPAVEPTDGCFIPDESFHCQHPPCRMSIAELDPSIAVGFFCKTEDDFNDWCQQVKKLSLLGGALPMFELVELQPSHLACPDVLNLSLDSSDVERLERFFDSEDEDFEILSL
T1 sequence (P98170 whole entry): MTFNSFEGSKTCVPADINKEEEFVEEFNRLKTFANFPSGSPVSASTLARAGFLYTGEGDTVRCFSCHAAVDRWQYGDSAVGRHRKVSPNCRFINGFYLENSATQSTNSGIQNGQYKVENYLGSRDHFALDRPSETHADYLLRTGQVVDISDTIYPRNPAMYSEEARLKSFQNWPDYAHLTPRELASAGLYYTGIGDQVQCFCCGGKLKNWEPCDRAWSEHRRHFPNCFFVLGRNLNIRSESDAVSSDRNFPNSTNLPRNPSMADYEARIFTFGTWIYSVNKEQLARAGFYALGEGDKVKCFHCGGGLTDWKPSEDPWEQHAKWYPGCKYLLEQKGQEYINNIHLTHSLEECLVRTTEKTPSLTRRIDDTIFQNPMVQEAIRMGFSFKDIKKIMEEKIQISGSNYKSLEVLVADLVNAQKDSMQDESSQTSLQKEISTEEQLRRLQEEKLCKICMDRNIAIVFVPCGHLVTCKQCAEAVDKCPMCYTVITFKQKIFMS
Voltage-gated inwardly rectifying potassium channel KCNH2, sequence (Q12809 whole entry): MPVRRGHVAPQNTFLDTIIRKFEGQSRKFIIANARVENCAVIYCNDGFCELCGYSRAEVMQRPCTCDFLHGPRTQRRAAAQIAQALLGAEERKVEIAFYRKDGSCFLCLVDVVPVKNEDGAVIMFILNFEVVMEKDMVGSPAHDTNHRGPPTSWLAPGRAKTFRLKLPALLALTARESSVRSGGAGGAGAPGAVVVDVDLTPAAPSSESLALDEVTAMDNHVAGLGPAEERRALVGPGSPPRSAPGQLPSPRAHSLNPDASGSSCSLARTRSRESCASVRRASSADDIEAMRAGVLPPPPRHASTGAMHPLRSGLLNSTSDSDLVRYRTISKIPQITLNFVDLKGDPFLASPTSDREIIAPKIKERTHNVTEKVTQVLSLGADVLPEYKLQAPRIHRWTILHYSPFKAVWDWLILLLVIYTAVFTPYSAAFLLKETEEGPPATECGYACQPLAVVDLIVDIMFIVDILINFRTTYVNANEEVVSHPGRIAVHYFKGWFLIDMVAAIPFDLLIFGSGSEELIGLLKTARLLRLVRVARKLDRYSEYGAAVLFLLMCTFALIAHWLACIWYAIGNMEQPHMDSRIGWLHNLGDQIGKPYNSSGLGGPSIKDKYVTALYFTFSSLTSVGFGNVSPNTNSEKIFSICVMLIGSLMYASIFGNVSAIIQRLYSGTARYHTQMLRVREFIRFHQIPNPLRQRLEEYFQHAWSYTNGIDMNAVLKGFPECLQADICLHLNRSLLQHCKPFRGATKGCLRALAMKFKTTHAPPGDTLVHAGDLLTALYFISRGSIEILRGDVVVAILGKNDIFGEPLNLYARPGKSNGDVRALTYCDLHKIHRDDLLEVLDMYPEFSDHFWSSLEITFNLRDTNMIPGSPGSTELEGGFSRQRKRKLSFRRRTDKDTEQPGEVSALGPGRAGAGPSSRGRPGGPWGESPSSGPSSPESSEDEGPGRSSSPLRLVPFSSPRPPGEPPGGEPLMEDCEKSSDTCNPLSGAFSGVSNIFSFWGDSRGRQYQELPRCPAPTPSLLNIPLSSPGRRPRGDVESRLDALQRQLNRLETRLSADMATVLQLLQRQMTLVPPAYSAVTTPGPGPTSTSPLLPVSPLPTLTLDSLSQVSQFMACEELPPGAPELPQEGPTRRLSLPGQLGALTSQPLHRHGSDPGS
Phospholipase A2, sequence (P04054 whole entry, the tested form may be a part): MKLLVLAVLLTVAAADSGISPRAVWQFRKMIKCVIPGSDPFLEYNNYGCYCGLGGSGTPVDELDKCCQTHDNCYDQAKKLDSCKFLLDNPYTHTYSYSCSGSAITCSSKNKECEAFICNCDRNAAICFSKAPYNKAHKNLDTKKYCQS
FAD-linked sulfhydryl oxidase ALR, sequence (P55789 whole entry): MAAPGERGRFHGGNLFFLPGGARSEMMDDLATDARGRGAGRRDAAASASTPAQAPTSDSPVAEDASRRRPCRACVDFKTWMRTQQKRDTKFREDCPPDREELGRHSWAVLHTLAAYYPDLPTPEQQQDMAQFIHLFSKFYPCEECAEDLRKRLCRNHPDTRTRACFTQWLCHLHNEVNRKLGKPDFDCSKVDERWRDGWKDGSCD
26S proteasome non-ATPase regulatory subunit 14, sequence (O00487 whole entry): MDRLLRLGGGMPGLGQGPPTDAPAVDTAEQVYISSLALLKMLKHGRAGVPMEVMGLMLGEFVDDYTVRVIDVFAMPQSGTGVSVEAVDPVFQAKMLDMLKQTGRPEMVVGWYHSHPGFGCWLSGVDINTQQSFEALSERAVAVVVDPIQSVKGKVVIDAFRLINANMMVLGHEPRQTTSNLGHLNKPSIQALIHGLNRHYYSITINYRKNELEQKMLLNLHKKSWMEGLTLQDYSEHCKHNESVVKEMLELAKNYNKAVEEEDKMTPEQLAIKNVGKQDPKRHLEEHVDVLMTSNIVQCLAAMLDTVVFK
Photoreceptor-specific nuclear receptor, sequence (Q9Y5X4 whole entry, the tested form may be a part): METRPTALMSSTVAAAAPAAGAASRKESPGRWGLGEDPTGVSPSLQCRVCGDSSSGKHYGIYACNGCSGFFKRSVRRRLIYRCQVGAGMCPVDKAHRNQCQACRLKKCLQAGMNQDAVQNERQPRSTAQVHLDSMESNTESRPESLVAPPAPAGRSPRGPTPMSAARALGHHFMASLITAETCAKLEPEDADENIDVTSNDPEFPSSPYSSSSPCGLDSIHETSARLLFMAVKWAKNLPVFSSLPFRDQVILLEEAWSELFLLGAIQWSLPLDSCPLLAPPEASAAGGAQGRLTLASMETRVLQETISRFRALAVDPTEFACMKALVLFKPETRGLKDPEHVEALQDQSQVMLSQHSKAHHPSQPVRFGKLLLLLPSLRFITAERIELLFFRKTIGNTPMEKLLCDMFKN
Carboxy-terminal domain RNA polymerase II polypeptide A small phosphatase 1, sequence (Q9GZU7 whole entry, the tested form may be a part): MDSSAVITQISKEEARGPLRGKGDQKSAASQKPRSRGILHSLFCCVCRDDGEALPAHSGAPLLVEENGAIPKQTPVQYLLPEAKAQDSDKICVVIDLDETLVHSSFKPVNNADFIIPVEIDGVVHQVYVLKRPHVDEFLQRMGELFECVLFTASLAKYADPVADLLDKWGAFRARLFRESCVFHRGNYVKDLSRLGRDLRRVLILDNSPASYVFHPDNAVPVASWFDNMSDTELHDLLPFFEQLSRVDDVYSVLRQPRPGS
Beta-2 adrenergic receptor, sequence (P07550 whole entry): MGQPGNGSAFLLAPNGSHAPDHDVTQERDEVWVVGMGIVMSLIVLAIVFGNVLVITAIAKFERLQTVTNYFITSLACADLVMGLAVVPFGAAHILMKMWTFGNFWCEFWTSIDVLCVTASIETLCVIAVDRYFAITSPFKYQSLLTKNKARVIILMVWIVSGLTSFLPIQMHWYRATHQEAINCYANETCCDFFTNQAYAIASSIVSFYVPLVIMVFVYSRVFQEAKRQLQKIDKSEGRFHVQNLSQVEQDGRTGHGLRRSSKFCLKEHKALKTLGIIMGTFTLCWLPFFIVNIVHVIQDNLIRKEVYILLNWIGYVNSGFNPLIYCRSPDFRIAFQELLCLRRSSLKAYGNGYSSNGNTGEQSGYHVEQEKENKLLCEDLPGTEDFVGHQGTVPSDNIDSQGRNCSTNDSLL
Cytochrome P450 3A4, sequence (P08684 whole entry): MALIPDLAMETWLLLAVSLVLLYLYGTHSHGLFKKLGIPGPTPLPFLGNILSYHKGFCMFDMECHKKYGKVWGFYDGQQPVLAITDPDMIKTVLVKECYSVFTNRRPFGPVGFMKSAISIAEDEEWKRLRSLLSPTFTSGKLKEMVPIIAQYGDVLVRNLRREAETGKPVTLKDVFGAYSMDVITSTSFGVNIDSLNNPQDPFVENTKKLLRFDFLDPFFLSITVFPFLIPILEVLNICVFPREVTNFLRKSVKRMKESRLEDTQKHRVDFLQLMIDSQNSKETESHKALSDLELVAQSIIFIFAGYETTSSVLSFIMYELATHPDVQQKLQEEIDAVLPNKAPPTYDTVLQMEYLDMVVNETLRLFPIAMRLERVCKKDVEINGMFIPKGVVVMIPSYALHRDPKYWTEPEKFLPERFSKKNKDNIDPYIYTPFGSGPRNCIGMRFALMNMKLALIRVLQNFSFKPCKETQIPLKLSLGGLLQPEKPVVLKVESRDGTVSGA
Mu-type opioid receptor, sequence (P35372 whole entry): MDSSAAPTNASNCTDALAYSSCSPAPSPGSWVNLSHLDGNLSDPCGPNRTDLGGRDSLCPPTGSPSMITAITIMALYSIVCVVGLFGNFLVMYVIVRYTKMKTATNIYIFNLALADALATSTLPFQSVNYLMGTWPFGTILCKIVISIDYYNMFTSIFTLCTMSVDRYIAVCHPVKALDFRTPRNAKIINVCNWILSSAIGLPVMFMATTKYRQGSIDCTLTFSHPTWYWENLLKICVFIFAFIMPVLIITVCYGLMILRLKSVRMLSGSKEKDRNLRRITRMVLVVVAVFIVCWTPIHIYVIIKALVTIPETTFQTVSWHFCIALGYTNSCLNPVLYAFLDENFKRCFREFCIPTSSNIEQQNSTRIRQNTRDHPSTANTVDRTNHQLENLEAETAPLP

Usually EC50 stands for the concentration giving half of the maximal effect. Take `COc1ccc(CNC(=O)CCCCCNc2nc(S)nc3ccccc23)cc1`: in test [1], the EC50 is 25.5 nM (active).

By AC50 is commonly meant the concentration at which the activity in the assay is half-maximal. One may read the IC50 as the concentration at which inhibition is half-maximal. With `CCN(CC)c1ccc(N)cc1`, in test [2], the CC50 is 27.9 µM (active). For the same molecule, the AC50 in [3] was 6.78 µM (active); on Cytochrome P450 3A4 it was 25.1 µM (inconclusive); in test [6], 10 µM (inconclusive). The results for the IC50 (in test [4]; in test [5]; on Prothrombin) were 4.69 µM (active), > 100 µM (inactive) and 5.11 µM (active), respectively.

Regarding `CCOc1ccc(-c2noc(CCC(=O)O)n2)cc1`, the figures for the EC50 in test [7], in test [8] and in test [9] were 6.28 µM (active), 15 µM (active) and 7.97 µM (active), respectively. In addition, the IC50 in test [10] is > 100 µM (inactive); in test [11], > 100 µM (not active); in test [13], > 80 µM (inactive); with HEK293, > 80 µM (inactive). In test [12], the AC50 was 2.61 µM (active).

`Cc1cnc(C(=O)OCc2nc(O)c3sccc3n2)cn1`: the IC50 in test [14] is 7.9 µM (active).

For the molecule `OCC1(CC2CCCCO2)CCN(Cc2ccccc2-c2ccco2)CC1` (stereo unspecified), the 50% effective concentration (EC50) was 668 nM (active) in [15], > 92.4 µM (inactive) in [16], > 92.4 µM (inactive) at Mu-type opioid receptor and > 92.4 µM (inactive) in test [17].

Consider `Fc1ccc(CN=C(S)NCc2ccc(F)cc2)cc1`, for which, on Troponin, cardiac muscle, the EC50 is > 71.5 µM (inactive). Moreover, the IC50 on Cysteine protease ATG4B was 12.3 µM (active); on Phospholipase A2, 9.33 µM (active).

For the molecule `Cc1sc(NC(=O)c2ccccc2)c(C(=O)c2ccccc2)c1C`, the IC50 on Cysteine protease ATG4B was 15.3 µM (active); at Phospholipase A2, 9.18 µM (active).

Turning to `O=c1c(Br)ccc(Br)cc1Br`, the IC50 was 558 nM (active) in the test on CHO, 6.14 µM (active) on Beta Lactamase and 3.72 µM (active) in test [19]. In [18], the AC50 was 438 nM (active).

Regarding `CCC(C)(C)C(=O)O` [DIMEBUTIC ACID], in test [6], the concentration at half-maximal activity (AC50) is 12.6 µM (inconclusive).
